Source: the NIST ThermoML archive (doi:10.1016/j.fluid.2005.06.010)

Assay: xn = mol fraction of the nth substance listed
Conditions: Fluid (supercritical or subcritical phases), Vibrating tube method

c1ccc2ccccc2c1 [naphthalene] + O=C=O
Conditions	mass density [kg/m3]
323.07 K, 21967 kPa, x1 = 0.0049	814.97
323.07 K, 21991 kPa, x1 = 0.0235	840.23
323.07 K, 22035 kPa, x1 = 0.0093	823.39
323.07 K, 22055 kPa, x1 = 0.0144	828.6
323.07 K, 23011 kPa, x1 = 0.0144	836.78
323.07 K, 23014 kPa, x1 = 0.0049	824.8
323.07 K, 23024 kPa, x1 = 0.0235	848.46
323.07 K, 23037 kPa, x1 = 0.0093	832.27
323.07 K, 23975 kPa, x1 = 0.0144	844.56
323.07 K, 24012 kPa, x1 = 0.0235	855.79
323.07 K, 24013 kPa, x1 = 0.0093	840.35
323.07 K, 24015 kPa, x1 = 0.0049	833.51
323.07 K, 25007 kPa, x1 = 0.0235	862.81
323.07 K, 25048 kPa, x1 = 0.0093	848.36
323.08 K, 12879 kPa, x1 = 0.0173	702.14
323.08 K, 13019 kPa, x1 = 0.0173	705.93
323.08 K, 13536 kPa, x1 = 0.0173	719.07
323.08 K, 14042 kPa, x1 = 0.0173	730.6
323.08 K, 15088 kPa, x1 = 0.0173	750.8
323.08 K, 16012 kPa, x1 = 0.0173	766
323.08 K, 17038 kPa, x1 = 0.0173	780.79
323.08 K, 18011 kPa, x1 = 0.0173	793.15
323.08 K, 19021 kPa, x1 = 0.0173	804.74
323.08 K, 20018 kPa, x1 = 0.0173	815.17
323.08 K, 21012 kPa, x1 = 0.0173	824.64
323.08 K, 22051 kPa, x1 = 0.0173	833.83
323.08 K, 23040 kPa, x1 = 0.0173	842.05
323.08 K, 24014 kPa, x1 = 0.0173	849.58
323.08 K, 24688 kPa, x1 = 0.0173	854.56
323.11 K, 11710 kPa, x1 = 0.0065	608.68
323.11 K, 11886 kPa, x1 = 0.0065	618.53
323.11 K, 12112 kPa, x1 = 0.0065	630.1
323.11 K, 12597 kPa, x1 = 0.0065	651.76
323.11 K, 13175 kPa, x1 = 0.0065	672.88
323.11 K, 14114 kPa, x1 = 0.0065	700.29
323.11 K, 14946 kPa, x1 = 0.0065	719.89
323.11 K, 15974 kPa, x1 = 0.0065	740.17
323.11 K, 17091 kPa, x1 = 0.0065	758.86
323.11 K, 18018 kPa, x1 = 0.0065	772.31
323.11 K, 19119 kPa, x1 = 0.0065	786.49
323.11 K, 19947 kPa, x1 = 0.0065	796.13
323.11 K, 21027 kPa, x1 = 0.0065	807.77
323.11 K, 22102 kPa, x1 = 0.0065	818.31
323.11 K, 23244 kPa, x1 = 0.0065	828.6
323.11 K, 23905 kPa, x1 = 0.0065	834.23
323.11 K, 24345 kPa, x1 = 0.0065	837.73
323.13 K, 10131 kPa, x1 = 0.0038	441.7
323.13 K, 10204 kPa, x1 = 0.0038	452.21
323.13 K, 10370 kPa, x1 = 0.0038	473.73
323.13 K, 10546 kPa, x1 = 0.0038	495.19
323.13 K, 10713 kPa, x1 = 0.0038	513.93
323.13 K, 10899 kPa, x1 = 0.0038	532.86
323.13 K, 11125 kPa, x1 = 0.0038	553.43
323.13 K, 11428 kPa, x1 = 0.0038	577.02
323.13 K, 11636 kPa, x1 = 0.0038	591
323.13 K, 11975 kPa, x1 = 0.0038	610.86
323.13 K, 12255 kPa, x1 = 0.0038	625.25
323.13 K, 12628 kPa, x1 = 0.0038	641.9
323.13 K, 13011 kPa, x1 = 0.0038	656.88
323.13 K, 13569 kPa, x1 = 0.0038	675.56
323.13 K, 14021 kPa, x1 = 0.0038	688.77
323.13 K, 15003 kPa, x1 = 0.0038	713.06
323.13 K, 16030 kPa, x1 = 0.0038	733.89
323.13 K, 17020 kPa, x1 = 0.0038	750.95
323.13 K, 18020 kPa, x1 = 0.0038	766.06
323.13 K, 19025 kPa, x1 = 0.0038	779.54
323.13 K, 20018 kPa, x1 = 0.0038	791.52
323.13 K, 21018 kPa, x1 = 0.0038	802.54
323.13 K, 22016 kPa, x1 = 0.0038	812.65
323.13 K, 23026 kPa, x1 = 0.0038	822.13
323.13 K, 24020 kPa, x1 = 0.0038	830.83
323.13 K, 25003 kPa, x1 = 0.0038	838.9
327.94 K, 14128 kPa, x1 = 0.0198	700.18
327.94 K, 15025 kPa, x1 = 0.0198	721
327.94 K, 15984 kPa, x1 = 0.0198	739.45
327.94 K, 17037 kPa, x1 = 0.0198	756.72
327.94 K, 18024 kPa, x1 = 0.0198	770.78
327.94 K, 18966 kPa, x1 = 0.0198	782.81
327.94 K, 20021 kPa, x1 = 0.0198	794.93
327.94 K, 21050 kPa, x1 = 0.0198	805.66
327.94 K, 22039 kPa, x1 = 0.0198	815.2
327.94 K, 22982 kPa, x1 = 0.0198	823.62
327.94 K, 24044 kPa, x1 = 0.0198	832.44
327.94 K, 25048 kPa, x1 = 0.0198	840.3
327.98 K, 20991 kPa, x1 = 0.0276	810.47
327.98 K, 22012 kPa, x1 = 0.0276	819.85
327.98 K, 23092 kPa, x1 = 0.0276	829.12
327.98 K, 23996 kPa, x1 = 0.0276	836.33
327.98 K, 24882 kPa, x1 = 0.0276	843.08
327.99 K, 11253 kPa, x1 = 0.0049	476.13
327.99 K, 11541 kPa, x1 = 0.0049	502.2
327.99 K, 12000 kPa, x1 = 0.0049	538.29
327.99 K, 13016 kPa, x1 = 0.0049	598.5
327.99 K, 14020 kPa, x1 = 0.0049	639.93
327.99 K, 15009 kPa, x1 = 0.0049	671.01
327.99 K, 16051 kPa, x1 = 0.0049	696.96
327.99 K, 16996 kPa, x1 = 0.0049	716.42
327.99 K, 18024 kPa, x1 = 0.0049	734.62
327.99 K, 18955 kPa, x1 = 0.0394	812.97
327.99 K, 19015 kPa, x1 = 0.0049	750.05
327.99 K, 19491 kPa, x1 = 0.0394	818.42
327.99 K, 20015 kPa, x1 = 0.0394	823.07
327.99 K, 20048 kPa, x1 = 0.0049	764.24
327.99 K, 20960 kPa, x1 = 0.0394	831.55
327.99 K, 21025 kPa, x1 = 0.0049	776.39
327.99 K, 22010 kPa, x1 = 0.0394	840.78
327.99 K, 22049 kPa, x1 = 0.0049	788
327.99 K, 23023 kPa, x1 = 0.0049	798.13
327.99 K, 23040 kPa, x1 = 0.0394	848.69
327.99 K, 24009 kPa, x1 = 0.0394	855.98
327.99 K, 24079 kPa, x1 = 0.0049	808.33
327.99 K, 24881 kPa, x1 = 0.0394	861.95
328 K, 12017 kPa, x1 = 0.0093	567.42
328 K, 12517 kPa, x1 = 0.0093	596.95
328 K, 12987 kPa, x1 = 0.0173	652.9
328 K, 13018 kPa, x1 = 0.0144	638.84
328 K, 13022 kPa, x1 = 0.0093	621.23
328 K, 13497 kPa, x1 = 0.0144	656.68
328 K, 13513 kPa, x1 = 0.0173	670.93
328 K, 13916 kPa, x1 = 0.0235	697.69
328 K, 14000 kPa, x1 = 0.0144	672.81
328 K, 14016 kPa, x1 = 0.0173	685.86
328 K, 14033 kPa, x1 = 0.0093	659.25
328 K, 14510 kPa, x1 = 0.0235	712.23
328 K, 14988 kPa, x1 = 0.0235	722.58
328 K, 15031 kPa, x1 = 0.0173	710.98
328 K, 15041 kPa, x1 = 0.0093	688.02
328 K, 15044 kPa, x1 = 0.0144	700.6
328 K, 16003 kPa, x1 = 0.0235	741.93
328 K, 16024 kPa, x1 = 0.0093	710.6
328 K, 16029 kPa, x1 = 0.0173	731.18
328 K, 16033 kPa, x1 = 0.0144	721.87
328 K, 17009 kPa, x1 = 0.0144	739.63
328 K, 17031 kPa, x1 = 0.0093	730
328 K, 17033 kPa, x1 = 0.0173	748.41
328 K, 17036 kPa, x1 = 0.0235	758.59
328 K, 18019 kPa, x1 = 0.0235	772.44
328 K, 18021 kPa, x1 = 0.0144	755.54
328 K, 18047 kPa, x1 = 0.0173	763.56
328 K, 18057 kPa, x1 = 0.0093	747.01
328 K, 19027 kPa, x1 = 0.0235	785.16
328 K, 19029 kPa, x1 = 0.0173	776.56
328 K, 19034 kPa, x1 = 0.0144	769.62
328 K, 19042 kPa, x1 = 0.0093	761.34
328 K, 20006 kPa, x1 = 0.0093	774.02
328 K, 20013 kPa, x1 = 0.0173	788.3
328 K, 20015 kPa, x1 = 0.0235	796.35
328 K, 20048 kPa, x1 = 0.0144	782.23
328 K, 21013 kPa, x1 = 0.0093	785.89
328 K, 21023 kPa, x1 = 0.0235	806.8
328 K, 21036 kPa, x1 = 0.0173	799.42
328 K, 21043 kPa, x1 = 0.0144	793.46
328 K, 22023 kPa, x1 = 0.0235	816.35
328 K, 22030 kPa, x1 = 0.0144	803.66
328 K, 22034 kPa, x1 = 0.0093	796.9
328 K, 22064 kPa, x1 = 0.0173	809.6
328 K, 23029 kPa, x1 = 0.0173	818.53
328 K, 23041 kPa, x1 = 0.0235	825.35
328 K, 23052 kPa, x1 = 0.0093	807.08
328 K, 23065 kPa, x1 = 0.0144	813.57
328 K, 24012 kPa, x1 = 0.0144	821.99
328 K, 24037 kPa, x1 = 0.0235	833.62
328 K, 24065 kPa, x1 = 0.0093	816.43
328 K, 24082 kPa, x1 = 0.0173	827.53
328 K, 24770 kPa, x1 = 0.0144	828.36
328 K, 24838 kPa, x1 = 0.0173	833.72
328 K, 25066 kPa, x1 = 0.0235	841.58
328 K, 25067 kPa, x1 = 0.0093	825.06
328.08 K, 11635 kPa, x1 = 0.0065	518.62
